In ChEMBL document CHEMBL1146877, “D609 blocks cell survival and induces apoptosis in neural stem cells” (Bioorg Med Chem Lett, 2006) one finds Activity data, which are given here for one compound.

Active and inactive are the calls of the source. No cut-off for these calls is given here.

Common to all, as to assay type: functional, cell-based
What all share (settings): Rattus norvegicus

Test [1] deals with NSC. Put plainly: Induction of necrosis in NSC cells assessed as lactate dehydrogenase release at 56.29 uM within 72 hrs relative to control.
Test [2] relates to NSC. Nature of the test: Inhibition of reactive oxygen species accumulation in NSC cells relative to control.
The subject of test [3] is NSC. Put plainly: Decrease in viability of NSC cells at 18.76 uM for 24 hrs in presence of bFGF.
Test [4] has as its system NSC. Put plainly: Decrease in viability of NSC cells at 56.29 uM for 72 hrs in presence of bFGF.
For test [5], the system named is NSC. Nature of the test: Induction of apoptosis in NSC cells by TUNEL assay.
Test [6] relates to NSC. Put plainly: Decrease in viability of NSC cells at 37.53 uM for 48 hrs in presence of bFGF.

As to `S=C(S)OC1CC2CC1C1CCCC21` (stereo unspecified), the outcome in the test on NSC [1] was inactive. In addition, the result in the test with NSC [2], with NSC [3], with NSC [4], with NSC [5] and in the test on NSC [6] was Active.
